pEC50, pIC50: −log10 of the molar value.
Tests used:
[1] = target: T1, HCV NS3/4A protease complex (UniProt P27958, C1454S/C1711G, species not given); experiment: Recombinant HCV NS3/4A protease complex FRET peptide assay (strain not stated); assay type: biochemical; settings: NS3/4A protease enzyme assay, read-out: Activity Range IC50
T1 construct: fused on or other part: Three-lysine solubilising tail at the C-terminus of NS4A
Source text: The purpose of this in vitro assay was to measure the inhibition of HCV NS3 protease complexes, derived from the BMS strain, H77 strain or J416S strain, as described below, by compounds of the present invention. This assay provides an indication of how effective compounds of the present invention would be in inhibiting HCV proteolytic activity.
Serum from an HCV-infected patient was obtained from Dr. T. Wright, San Francisco Hospital. An engineered full-length cDNA (compliment deoxyribonucleic acid) template of the HCV genome (BMS strain) was constructed from DNA fragments obtained by reverse transcription-PCR (RT-PCR) of serum RNA (ribonucleic acid) and using primers selected on the basis of homology between other genotype 1a strains. From the determination of the entire genome sequence, a genotype 1a was assigned to the HCV isolate according to the classification of Simmonds et al. (See P Simmonds, K A Rose, S Graham, S W Chan, F McOmish, B C Dow, E A Follett, P L Yap and H Marsden, J. Clin. Microbiol., 31(6), 1493–1503 (1993)). […] The infectious clones, H77 (1a genotype) and J4L6S (1b genotype) were obtained from R. Purcell (NIH) and the sequences are published in Genbank (AAB67036, see Yanagi, M., Purcell, R. H., Emerson, S. U. and Bukh, J. Proc. Natl. Acad. Sci. U.S.A. 94(16), 8738–8743 (1997); AF054247, see Yanagi, M., St Claire, M., Shapiro, M., Emerson, S. U., Purcell, R. H. and Bukh, J, Virology 244 (1), 161–172. (1998)).
The H77 and J4L6S strains were used for production of recombinant NS3/4A protease complexes. DNA encoding the recombinant HCV NS3/4A protease complex (amino acids 1027 to 1711) for these strains were manipulated as described by P. Gallinari et al. (see Gallinari P, Paolini C, Brennan D, Nardi C, Steinkuhler C, De Francesco R. Biochemistry. 38(17):5620–32, (1999)). Briefly, a three-lysine solubilizing tail was added at the 3′-end of the NS4A coding region. The cysteine in the P1 position of the NS4A–NS4B cleavage site (amino acid 1711) was changed to a glycine to avoid the proteolytic cleavage of the lysine tag. Furthermore, a cysteine to serine mutation was introduced by PCR at amino acid position 1454 to prevent the autolytic cleavage in the NS3 helicase domain. The variant DNA fragment was cloned in the pET21b bacterial expression vector (Novagen) and the NS3/4A complex was expressed in Escherichia. coli strain BL21 (DE3) (Invitrogen) following the protocol described by P. Gallinari et al. (see Gallinari P, Brennan D, Nardi C, Brunetti M, Tomei L, Steinkuhler C, De Francesco R., J Virol. 72(8):6758–69 (1998)) with modifications. Briefly, the NS3/4A protease complex expression was induced with 0.5 millimolar (mM) Isopropyl β-D-1-thiogalactopyranoside (IPTG) for 22 hours (h) at 20° C. A typical fermentation (1 Liter (L)) yielded approximately 10 grams (g) of wet cell paste. The cells were resuspended in lysis buffer (10 mL/g) consisting of 25 mM N-(2-Hydroxyethyl)Piperazine-N′-(2-Ethane Sulfonic acid) (HEPES), pH 7.5, 20% glycerol, 500 mM Sodium Chloride (NaCl), 0.5% Triton X-100, 1 microgram/milliliter (“μg/mL”) lysozyme, 5 mM Magnesium Chloride (MgCl2), 1 μg/ml Dnasel, 5 mM β-Mercaptoethanol (βME), Protease inhibitor—Ethylenediamine Tetraacetic acid (EDTA) free (Roche), homogenized and incubated for 20 minutes (min) at 4° C. The homogenate was sonicated and clarified by ultra-centrifugation at 235000 g for 1 h at 4° C. Imidazole was added to the supernatant to a final concentration of 15 mM and the pH adjusted to 8.0. The crude protein extract was loaded on a Nickel—Nitrilotriacetic acid (Ni-NTA) column pre-equilibrated with buffer B (25 mM HEPES, pH 8.0, 20% glycerol, 500 mM NaCl, 0.5% Triton X-100, 15 mM imidazole, 5 mM βME). The sample was loaded at a flow rate of 1 mL/min. The column was washed with 15 column volumes of buffer C (same as buffer B except with 0.2% Triton X-100). The protein was eluted with 5 column volumes of buffer D (same as buffer C except with 200 mM Imidazole). […]

[2] = test system: HCV replicon in Huh7 cells; experiment: HCV replicon cell-based assay (FRET); design: species or system HCV strain 1b; settings: Hepatitis C virus, Huh-7, 96 h, 4 days, read-out: Activity Range EC50
Source text: An HCV replicon whole cell system was established as described by Lohmann V, Korner F, Koch J, Herian U, Theilmann L, Bartenschlager R., Science 285(5424):110–3 (1999). This system enabled us to evaluate the effects of our HCV Protease compounds on HCV RNA replication. Briefly, using the HCV strain 1b sequence described in the Lohmann paper (Assession number:AJ238799), an HCV cDNA was generated encoding the 5′ internal ribosome entry site (IRES), the neomycin resistance gene, the EMCV (encephalomyocarditis viurs)-IRES and the HCV nonstructural proteins, NS3–NS5B, and 3′ non-translated region (NTR). In vitro transcripts of the cDNA were transfected into the human hepatoma cell line, Huh7. […] Resulting cell lines were characterized for positive and negative strand RNA production and protein production over time.
Huh7 cells, constitutively expressing the HCV replicon, were grown in Dulbecco's Modified Eagle Media (DMEM) containing 10% Fetal calf serum (FCS) and 1 mg/ml G418 (Gibco-BRL). Cells were seeded the night before (1.5×10^4 cells/well) in 96-well tissue-culture sterile plates. Compound and no compound controls were prepared in DMEM containing 4% FCS, 1:100 Penicillin/Streptomysin, 1:100 L-glutamine and 5% DMSO in the dilution plate (0.5% DMSO final concentration in the assay). Compound/DMSO mixes were added to the cells and incubated for 4 days at 37° C. After 4 days, plates were rinsed thoroughly with Phosphate-Buffered Saline (PBS) (3 times 150 μl). The cells were lysed with 25 μl of a lysis assay reagent containing the FRET peptide (RET S1, as described for the in vitro enzyme assay). The lysis assay reagent was made from 5× cell Luciferase cell culture lysis reagent (Promega #E153A) diluted to 1× with distilled water, NaCl added to 150 mM final, the FRET peptide diluted to 10 μM final from a 2 mM stock in 100% DMSO. The plate was then placed into the Cytofluor 4000 instrument which had been set to 340 nm excitation/490 nm emission, automatic mode for 21 cycles and the plate read in a kinetic mode. EC50 determinations were carried out as described for the IC50 determinations. […]
The percentage inhibition was calculated using the formula below: […]
The values were graphed and analyzed using XLFit to obtain the EC50 value.

| SMILES | pIC50 [1] | pEC50 [2] |
| --- | --- | --- |
| C=CC1CC1(NC(=O)[C@@H]1C[C@@H](Oc2cc(-c3ccccc3)nc3cc(OC)ccc23)CN1C(=O)[C@@H](NC(=O)OC)C(C)(C)C)C(=O)NS(=O)(=O)N1CCCC1 (mixture of isomers) [Compound 8] | > 6.82 | 5.82 to 6.82 |
| C=CC1C[C@]1(NC(=O)[C@@H]1C[C@@H](Oc2cc(-c3ccccc3)nc3cc(OC)ccc23)CN1C(=O)[C@@H](NC(=O)OC)C(C)(C)C)C(=O)NS(=O)(=O)N(C)CC (stereo partly drawn) [Compound 1] | > 6.82 | > 6.82 |
| C=CC1C[C@]1(NC(=O)[C@@H]1C[C@@H](Oc2cc(-c3ccccc3)nc3cc(OC)ccc23)CN1C(=O)[C@@H](NC(=O)OC)C(C)(C)C)C(=O)NS(=O)(=O)N(C)OC (stereo partly drawn) [Compound 2] | > 6.82 | 5.82 to 6.82 |
| C=CC1C[C@]1(NC(=O)[C@@H]1C[C@@H](Oc2cc(-c3ccccc3)nc3cc(OC)ccc23)CN1C(=O)[C@@H](NC(=O)OC)C(C)(C)C)C(=O)NS(=O)(=O)N(C)C (stereo partly drawn) [Compound 3] | > 6.82 | > 6.82 |
| C=CC1C[C@]1(NC(=O)[C@@H]1C[C@@H](Oc2cc(-c3ccccc3)nc3cc(OC)ccc23)CN1C(=O)[C@@H](NC(=O)OC)C(C)(C)C)C(=O)NS(=O)(=O)N1CCC1 (stereo partly drawn) [Compound 4] | > 6.82 | 5.82 to 6.82 |
| C=CC1C[C@]1(NC(=O)[C@@H]1C[C@@H](Oc2cc(-c3ccccc3)nc3cc(OC)ccc23)CN1C(=O)[C@@H](NC(=O)OC)C(C)(C)C)C(=O)NS(=O)(=O)N(C)c1ccccc1 (stereo partly drawn) [Compound 5] | > 6.82 | > 6.82 |
| C=CC1C[C@]1(NC(=O)[C@@H]1C[C@@H](Oc2cc(-c3ccccc3)nc3cc(OC)ccc23)CN1C(=O)[C@@H](NC(=O)OC)C(C)(C)C)C(=O)NS(=O)(=O)N1CCCC1 (stereo partly drawn) [Compound 6] | > 6.82 | 5.82 to 6.82 |
| C=CC1C[C@]1(NC(=O)[C@@H]1C[C@@H](Oc2cc(-c3ccccc3)nc3cc(OC)ccc23)CN1C(=O)[C@@H](NC(=O)OC)C(C)(C)C)C(=O)NS(=O)(=O)N(C)C(C)C (stereo partly drawn) [Compound 7] | > 6.82 | 5.82 to 6.82 |
| C=CC1C[C@]1(NC(=O)[C@@H]1C[C@@H](Oc2cc(-c3ccccc3)nc3cc(OC)ccc23)CN1C(=O)[C@@H](NC(=O)OC)C(C)(C)C)C(=O)NS(=O)(=O)N1CCCCC1 (stereo partly drawn) [Compound 10] | > 6.82 | 5.82 to 6.82 |
| C=CC1C[C@]1(NC(=O)[C@@H]1C[C@@H](Oc2cc(-c3ccccc3)nc3cc(OC)ccc23)CN1C(=O)[C@@H](NC(=O)OC)C(C)(C)C)C(=O)NS(=O)(=O)N1CCCCO1 (stereo partly drawn) [Compound 11] | 5.82 to 6.82 | < 5.82 |
| C=CC1C[C@]1(NC(=O)[C@@H]1C[C@@H](Oc2cc(-c3ccccc3)nc3cc(OC)ccc23)CN1C(=O)[C@@H](NC(=O)OC)C(C)(C)C)C(=O)NS(=O)(=O)N1CCOCC1 (stereo partly drawn) [Compound 12] | 5.82 to 6.82 | – |
| C=CC1C[C@]1(NC(=O)[C@@H]1C[C@@H](Oc2cc(-c3ccccc3)nc3cc(OC)ccc23)CN1C(=O)[C@@H](NC(=O)OC)C(C)(C)C)C(=O)NS(=O)(=O)N1CCN(C)CC1 (stereo partly drawn) [Compound 13] | 5.82 to 6.82 | < 5.82 |
| C=CC1C[C@]1(NC(=O)[C@@H]1C[C@@H](Oc2cc(-c3ccccc3)nc3cc(OC)ccc23)CN1C(=O)[C@@H](NC(=O)OC(C)(C)C)C(C)(C)C)C(=O)NS(=O)(=O)N(C)CC (stereo partly drawn) [Compound 14] | > 6.82 | > 6.82 |
| C=CC1C[C@]1(NC(=O)[C@@H]1C[C@@H](Oc2cc(-c3ccccc3)nc3cc(OC)ccc23)CN1C(=O)[C@@H](NC(=O)OC(C)(C)C)C(C)(C)C)C(=O)NS(=O)(=O)N(C)C (stereo partly drawn) [Compound 15] | > 6.82 | > 6.82 |
| C=CC1C[C@]1(NC(=O)[C@@H]1C[C@@H](Oc2cc(-c3ccccc3)nc3cc(OC)ccc23)CN1C(=O)[C@@H](NC(=O)OC(C)(C)C)C(C)(C)C)C(=O)NS(=O)(=O)N(C)c1ccccc1 (stereo partly drawn) [Compound 16] | > 6.82 | > 6.82 |
| C=CC1C[C@]1(NC(=O)[C@@H]1C[C@@H](Oc2nccc3cc(OC)ccc23)CN1C(=O)[C@@H](NC(=O)OC(C)(C)C)C(C)(C)C)C(=O)NS(=O)(=O)N(C)C (stereo partly drawn) [Compound 17] | > 6.82 | 5.82 to 6.82 |
| C=CC1C[C@]1(NC(=O)[C@@H]1C[C@@H](Oc2nccc3cc(OC)ccc23)CN1C(=O)[C@@H](NC(=O)OC(C)(C)C)C(C)(C)C)C(=O)NS(=O)(=O)N1CCCC1 (stereo partly drawn) [Compound 18] | > 6.82 | > 6.82 |
| C=CC1C[C@]1(NC(=O)[C@@H]1C[C@@H](Oc2nccc3cc(OC)ccc23)CN1C(=O)[C@@H](NC(=O)OC(C)(C)C)C(C)(C)C)C(=O)NS(=O)(=O)N(C)CC (stereo partly drawn) [Compound 19] | > 6.82 | > 6.82 |
| C=CC1C[C@]1(NC(=O)[C@@H]1C[C@@H](Oc2nccc3cc(OC)ccc23)CN1C(=O)[C@@H](NC(=O)OC(C)(C)C)C(C)(C)C)C(=O)NS(=O)(=O)N(C)c1ccccc1 (stereo partly drawn) [Compound 20] | > 6.82 | > 6.82 |
| C=CC1C[C@]1(NC(=O)[C@@H]1C[C@@H](Oc2nccc3cc(OC)ccc23)CN1C(=O)[C@@H](NC(=O)OC(C)(C)C)C(C)(C)C)C(=O)NS(=O)(=O)N(C)C(C)C (stereo partly drawn) [Compound 21] | 5.82 to 6.82 | 5.82 to 6.82 |
| C=CC1C[C@]1(NC(=O)[C@@H]1C[C@@H](Oc2nccc3ccccc23)CN1C(=O)[C@@H](NC(=O)OC(C)(C)C)C(C)(C)C)C(=O)NS(=O)(=O)N(C)C(C)C (stereo partly drawn) [Compound 22] | 5.82 to 6.82 | – |
| C=CC1C[C@]1(NC(=O)[C@@H]1C[C@@H](Oc2nc(-c3ccncc3)cc3ccccc23)CN1C(=O)[C@@H](NC(=O)OC(C)(C)C)C(C)(C)C)C(=O)NS(=O)(=O)N(C)C (stereo partly drawn) [Compound 23] | > 6.82 | > 6.82 |

From patent US7132504B2, “Hepatitis C virus inhibitors” (Bristol-Myers Squibb Company, priority 2003, dated 2006)
